Measured values reported in US6451796B1, “Fused pyrazine compounds” (Ono Pharmaceutical Co., Ltd., priority 1997, dated 2002).

Experiments:
Assay type in all cases: cell-based
E-selectin expression = assay: Inhibition of E-selectin expression in HUVEC (cell ELISA); conditions: Homo sapiens; HUVEC stimulated with TNFα for 6 hours, ELISA of surface expression
Protocol: (§1) (1) Inhibition of Adhesion Molecules Expression in HUVEC
(§2) Human umbilical vein endothelial cells were cultured using MCDB104 medium (Nissui) containing 5% Fetal bovine serum supplemented antibiotics (100 U/ml penicillin, 100 μg/ml streptomycin (Gibco)), 0.01 mg/ml heparin (Nissui) and 0.005 mg/ml endothelial cells (EC) growth factor (Nissui) in gelatin coated 96-well microtiter plates by resulting in confluent monolayers.
(§3) The compounds were dissolved in dimethyl sulfoxide and prepared final 0.2% concentration in the medium and then added 50 μl into the well. Cytokine stimulation of EC was performed by adding 50 μl of 10 ng/ml TNFα (Genzyme) (for E-selectin. and ICAM-1 expression) or 50 μl of 10 ng/ml TNFα plus 1 ng/ml IL-4 (Genzyme)(for VCAM- expression).
(§4) After stimulation for 6 hours, the wells were washed with PBS(−) once and EC monolayers were fixed by incubating with methanol containing 0.3% hydrogen peroxide for 10 minutes at room temperature. After washing with PBS(−) three times, an ELISA was used to measure the expression of adhesion molecules on EC surface. The ELISA was performed at room temperature with three times washes with PBS(−) between each step. EC were incubated for 30 minutes in turn with 100 μl primary antibody which were anti-ICAM-1 antibody (BBA4), anti-E-selectin antibody (BBA2) or anti-VCAM-1 antibody (BBA6) (mouse IgG1, 1.25 μl/ml; R&D), with 100 μl of secondary antibody which was goat anti-mouse IgG conjugated peroxidase (dilution (1/400); Nordic Immunological laboratories). The enzyme substrate 1 mg/ml o-phenylenediamine/2HCl and 0.1% hydrogen peroxide of 100 μl was added and incubated for 4 minutes at room temperature.
(§5) Reaction was stopped with 50 μl of 8N sulfuric acid and optical density (OD) of each well read at 490 nm in immunoreder. Inhibitory percentage was calculated as follows and IC50 value was estimated by percentage for control.
(§6) Inhibitory percentage (%)=[(C−S)/(C−B)]×100
(§7) C: OD of the sample stimulated by cytokines
(§8) S: OD of the sample stimulated by cytokines in the presence of test compound
(§9) B: OD of the nonstimulated sample

VCAM-1 expression = assay: Inhibition of VCAM-1 expression in HUVEC (cell ELISA); conditions: Homo sapiens; HUVEC stimulated with TNFα plus IL-4 for 6 hours, ELISA of surface expression
Protocol: as §1, §2, §3, §4, §5, §6, §7, §8, §9

ICAM-1 expression = assay: Inhibition of ICAM-1 expression in HUVEC (cell ELISA); conditions: Homo sapiens; HUVEC stimulated with TNFα for 6 hours, ELISA of surface expression
Protocol: as §1, §2, §3, §4, §5, §6, §7, §8, §9

[1] = Cytotoxicity test by MTT assay; conditions: human; EC treated under conditions identical to adhesion molecule expression measurement; MTT 3 hours
Protocol: Furthermore, MTT [3-(4,5-dimethyl-2-thiazolyl)-2,5-diphenyl-2H-tetrazolium bromide] assay was enforced and the number of living cells was counted in order to estimate the effect of compound not to depend cytotoxicity on the above evaluation system.
(2) Cytotoxicity Test by MTT Assay
EC Were treated under conditions identical to those employed for measurement of adhesion molecules expression. After incubation, the wells were washed with PBS(−) once, added 100 μl of MTT solution (1 mg/ml) and incubated for 3 hours. After incubation supernatants were discarded and 100 μl of methanol added. After stirring, OD of each well read at 570 nm/690 nm in immunoreader. Inhibitory percentage was calculated as follows and IC50 value was estimated by percentage for control.
Inhibitory percentage (%)=[(C−S)/C)]×100
as §7, §8

What does the source list for `FC(F)(F)c1nnc2c(Sc3ccccc3)nc3ccccc3n12` [Compound (12), 4-Phenylthio(5-trifluoromethyl-1,2,4-triazolo)-[4,3-a]quinoxaline]?
IC50 (E-selectin expression): 1.04 µM; IC50 (VCAM-1 expression): 0.95 µM; IC50 (ICAM-1 expression): 0.95 µM; IC50 [1]: > 50000 nM

With `CC(C)Sc1nc2cccnc2n2c(C(F)(F)F)nnc12` [Example 3(16), 4-Isopropylthio-(5-trifluoromethyl-1,2,4-triazolo)[3,4-c]1,4,5-triazanaphthalene] as the molecule, how does the IC50 (E-selectin expression) read?
The IC50 was 0.103 µM.

What about the IC50 (VCAM-1 expression) of the same molecule?
The IC50 was 0.032 µM.

And the IC50 (ICAM-1 expression)?
Its IC50 is 0.073 µM.

And the IC50 [1]?
The IC50 was > 100000 nM.

With `OCCCCCSc1nc2ccc(Cl)cc2n2c(C(F)(F)F)nnc12` [Example 3(73), 8-Chloro-4-(5-hydroxypentyl)thio-(5-trifluoromethyl-1,2,4-triazolo)[4,3-a]quinoxaline] as the molecule, how does the IC50 (E-selectin expression) read?
The IC50 was 0.6 µM.

What about the IC50 (VCAM-1 expression) of the same molecule?
The IC50 was 0.2 µM.

What about the IC50 (ICAM-1 expression) of the same molecule?
Its IC50 is 0.4 µM.

What about the IC50 [1] of the same molecule?
The IC50 was > 25000 nM.
